Experimental data as given in US20240368139A1, “NOVEL MODULATORS OF EHMT1 AND EHMT2 AND THERAPEUTIC USE THEREOF” (Tango Therapeutics, Inc., priority 2021, published 2024).
Where two headings read alike, the source gives them in different places.

How the values were obtained:
H3K9me2 in HCT116 cells = experiment: HCT116 H3K9me2 in-cell western assay; assay type: cell-based; conditions: Homo sapiens, read-out: H3K9me2 ICW IC50
Procedure, shortened: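 HCT116 cells (2,000/well) were treated for 72 h at 37° C, 5% CO2, with ten two-fold dilutions from 10 μM in duplicate. After PFA fixation, cells were stained overnight at 4° C with anti-H3K9me2, then with an 800 CW secondary plus DRAQ5.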

hERG potassium channels = hERG potassium channels (Homo sapiens, UniProt Q12809); experiment: In vitro hERG assay (SyncroPatch whole-cell recording); conditions: room temperature
human EHMT1 982-1266 = target: T1, human EHMT1 982-1266 (Homo sapiens, UniProt Q9H9B1); experiment: EHMT1 enzyme assay on histone peptide substrate (3H-SAM SPA); conditions: EHMT1 IC50, recombinant human EHMT1 982-1266, histone peptide substrate
T1 sequence (Q9H9B1 982-1266): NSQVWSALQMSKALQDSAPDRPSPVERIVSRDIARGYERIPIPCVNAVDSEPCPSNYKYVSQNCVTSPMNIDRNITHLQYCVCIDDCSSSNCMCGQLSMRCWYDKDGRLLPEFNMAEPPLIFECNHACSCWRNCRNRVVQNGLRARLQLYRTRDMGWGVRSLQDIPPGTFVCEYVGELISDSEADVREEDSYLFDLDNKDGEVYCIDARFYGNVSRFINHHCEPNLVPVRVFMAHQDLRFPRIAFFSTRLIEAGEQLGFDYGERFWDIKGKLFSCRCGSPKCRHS

human EHMT2 913-1193 = target: T2, human EHMT2 913-1193 (Homo sapiens, UniProt Q96KQ7); experiment: EHMT2 enzyme assay on histone peptide substrate (3H-SAM SPA); conditions: EHMT2 IC50, recombinant human EHMT2 913-1193, histone peptide substrate
T2 sequence (Q96KQ7 913-1193): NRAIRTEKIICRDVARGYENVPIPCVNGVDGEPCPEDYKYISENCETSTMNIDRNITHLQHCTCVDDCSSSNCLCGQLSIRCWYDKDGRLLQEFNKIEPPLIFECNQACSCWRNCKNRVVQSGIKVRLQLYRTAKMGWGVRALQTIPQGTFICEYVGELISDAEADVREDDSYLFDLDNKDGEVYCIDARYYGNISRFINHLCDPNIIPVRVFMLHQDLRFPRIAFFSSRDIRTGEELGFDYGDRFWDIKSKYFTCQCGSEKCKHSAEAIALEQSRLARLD

[1] = HCT-116, 72 h, HCT116 cells, 72 hours incubation
[2] = hERG IC50, CHO cells stably expressing hERG

Sequence of hERG potassium channels (Q12809 whole entry): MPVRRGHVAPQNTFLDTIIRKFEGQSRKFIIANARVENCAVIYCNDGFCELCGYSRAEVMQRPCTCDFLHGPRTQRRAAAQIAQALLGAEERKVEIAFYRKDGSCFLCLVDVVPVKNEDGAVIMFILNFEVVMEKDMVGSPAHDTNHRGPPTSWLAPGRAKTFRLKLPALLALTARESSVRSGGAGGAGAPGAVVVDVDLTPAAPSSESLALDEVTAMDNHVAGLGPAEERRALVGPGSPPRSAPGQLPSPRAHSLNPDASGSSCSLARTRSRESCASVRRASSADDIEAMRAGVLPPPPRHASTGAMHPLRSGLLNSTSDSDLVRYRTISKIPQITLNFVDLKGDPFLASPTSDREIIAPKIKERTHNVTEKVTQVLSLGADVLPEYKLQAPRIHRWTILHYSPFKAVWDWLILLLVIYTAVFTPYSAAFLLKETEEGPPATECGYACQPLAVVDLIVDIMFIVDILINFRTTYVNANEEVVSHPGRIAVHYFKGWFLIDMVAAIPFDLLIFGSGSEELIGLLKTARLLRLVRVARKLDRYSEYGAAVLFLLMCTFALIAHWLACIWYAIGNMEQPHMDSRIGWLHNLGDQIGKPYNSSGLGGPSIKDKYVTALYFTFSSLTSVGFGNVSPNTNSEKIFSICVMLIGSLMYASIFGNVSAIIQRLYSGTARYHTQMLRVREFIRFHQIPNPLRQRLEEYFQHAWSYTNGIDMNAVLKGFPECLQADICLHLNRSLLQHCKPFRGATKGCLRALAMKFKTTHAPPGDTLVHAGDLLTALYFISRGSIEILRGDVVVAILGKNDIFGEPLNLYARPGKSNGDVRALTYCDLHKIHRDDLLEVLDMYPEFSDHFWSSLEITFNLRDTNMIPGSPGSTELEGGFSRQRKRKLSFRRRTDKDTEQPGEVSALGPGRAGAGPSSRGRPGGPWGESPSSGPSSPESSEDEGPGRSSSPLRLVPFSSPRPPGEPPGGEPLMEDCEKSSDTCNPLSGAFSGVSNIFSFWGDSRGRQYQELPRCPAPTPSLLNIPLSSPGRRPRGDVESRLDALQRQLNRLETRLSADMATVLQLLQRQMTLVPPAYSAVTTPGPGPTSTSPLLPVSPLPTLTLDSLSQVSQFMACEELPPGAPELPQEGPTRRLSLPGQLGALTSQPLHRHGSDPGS

Row | SMILES | IC50 (H3K9me2 in HCT116 cells; [1]) | IC50 (hERG potassium channels; hERG IC50, SyncroPatch) | IC50 (human EHMT1 982-1266) | IC50 (human EHMT2 913-1193) | IC50 (hERG potassium channels; [2]) | IC50 (H3K9me2 in HCT116 cells; HCT-116, 72 h) | IC50 (H3K9me2 in HCT116 cells; HCT-116, HCT116 cells, 72 hours incubation)
1 | CNc1cc(C)nc(Nc2cc3c(c(C4=C[C@H]5CNC[C@H]5C4)c2)OCCO3)n1 (racemic) [Compound 134, N2-[5-(1,2,3,3a,6,6a-hexahydrocyclopenta[c]pyrrol-5-yl)-2,3-dihydro-1,4-benzodioxin-7-yl]-N4,6-dimethyl-pyrimidine-2,4-diamine] | 100 to 500 nM | > 10000 nM | 100 to 500 nM | 100 to 500 nM |  |  | 
2 | CNc1cc(C)nc(Nc2cc3c(c(C4=CCNCC(F)C4)c2F)OCC3)n1 (single isomer, unassigned) [Compound 167] | < 100 nM | 5000 to 10000 nM | < 100 nM | < 100 nM |  |  | 
3 | CNc1cc(C)nc(Nc2cc3c(c(C4=CCNCCC4)c2F)OCC3C)n1 (single isomer, unassigned) [Compound 169] | < 100 nM | 5000 to 10000 nM | < 100 nM | < 100 nM |  |  | 
4 | CNc1cc(C)nc(Nc2cc3c(c(C4=CCNCCC4)c2F)OCC3C)n1 (single isomer, unassigned) [Compound 170] |  | < 2000 nM |  |  |  |  | 
5 | CNc1cc(C)nc(Nc2cc3c(c(C4=CCNC(C)CC4)c2F)OCC3)n1 (single isomer, unassigned) [Compound 183] | < 100 nM | > 10000 nM | < 100 nM | < 100 nM |  |  | 
6 | CNc1cc(C)nc(Nc2cc3c(c(C4=CCNC(C)CC4)c2Cl)OCCC3)n1 (single isomer, unassigned) [Compound 357] | < 100 nM | 5000 to 10000 nM | < 100 nM | < 100 nM |  |  | 
7 | CNc1cc(C)nc(Nc2cc3c(c(C4=CCNC(C)CC4)c2F)OCO3)n1 (single isomer, unassigned) [Compound 369] | < 100 nM | 5000 to 10000 nM | < 100 nM | < 100 nM |  |  | 
8 | CNc1cc(C)nc(Nc2cc3c(c(C4=CCNCC(O)C4)c2C)OCC3)n1 (single isomer, unassigned) [Compound 370] |  | > 10000 nM | < 100 nM | < 100 nM |  |  | 
9 | CNc1cc(C)nc(Nc2cc3c(c(C4=CCNCC(O)C4)c2F)OCC3)n1 (single isomer, unassigned) [Compound 373] | < 100 nM | > 10000 nM | < 100 nM | < 100 nM |  |  | 
10 | CNc1cc(C)nc(Nc2cc3c(c(C4=CCNC(C)CC4)c2Cl)OCC3)n1 (single isomer, unassigned) [Compound 374] | < 100 nM | > 10000 nM | < 100 nM | < 100 nM |  |  | 
11 | CNc1cc(C)nc(Nc2cc3c(c(C4=CCNCC(O)C4)c2Cl)OCC3)n1 (single isomer, unassigned) [Compound 384] |  | > 10000 nM |  | < 100 nM |  |  | 
12 | CNc1cc(C)nc(Nc2cc3c(c(OCCCN4CCCC4)c2)OCC3)n1 [Compound 103, N^4,6-dimethyl-N^2-[7-(3-pyrrolidin-1-ylpropoxy)-2,3-dihydrobenzofuran-5-yl]pyrimidine-2,4-diamine] | 100 to 500 nM | > 10000 nM | 100 to 500 nM | 500 to 2000 nM |  |  | 
13 | CNc1cc(C)nc(Nc2cc3c(c(C4=CCNCCC4)c2F)OCC3)n1 [Compound 291, N2-[6-fluoro-7-(2,3,4,7-tetrahydro-1H-azepin-5-yl)-2,3-dihydrobenzofuran-5-yl]-N4,6-dimethyl-pyrimidine-2,4-diamine] | < 100 nM | > 10000 nM |  |  | > 10000 nM |  | 
14 | Cc1cc(NCC(F)(F)F)nc(Nc2cc3c(c(C4=CCN(C)CCC4)c2)OCC3)n1 [Compound 320] | 100 to 500 nM |  | 100 to 500 nM | 500 to 2000 nM |  |  | 
15 | CCNc1cc(C)nc(Nc2cc3c(c(C4=CCN(C)CCC4)c2)OCC3)n1 [Compound 321] | 100 to 500 nM |  | < 100 nM | 100 to 500 nM |  |  | 
16 | CNc1cc(C)nc(Nc2cc3c(c(C4=CCN(C)CCC4)c2)CCO3)n1 [Compound 333] | 500 to 2000 nM |  | 100 to 500 nM | 500 to 2000 nM |  |  | 

Row | SMILES | IC50 (H3K9me2 in HCT116 cells; [1]) | IC50 (hERG potassium channels; hERG IC50, SyncroPatch) | IC50 (human EHMT1 982-1266) | IC50 (human EHMT2 913-1193) | IC50 (hERG potassium channels; [2]) | IC50 (H3K9me2 in HCT116 cells; HCT-116, 72 h) | IC50 (H3K9me2 in HCT116 cells; HCT-116, HCT116 cells, 72 hours incubation)
17 | CNc1cc(C)nc(Nc2cc3c(c(N4C[C@H]5CNC[C@H]5C4)c2)OCCC3)n1 [Compound 338] | 100 to 500 nM |  | 100 to 500 nM | 500 to 2000 nM |  |  | 
18 | CNc1cc(C)nc(Nc2cc3c(c(N4CCCNCC4)c2)OCCC3)n1 [Compound 339] | 100 to 500 nM |  | 100 to 500 nM | 500 to 2000 nM |  |  | 
19 | CNc1cc(C)nc(Nc2cc3c(c(C4C[C@H]5CNC[C@H]5C4)c2)OCCC3)n1 (some centres unmarked) [Compound 340] | 100 to 500 nM |  | < 100 nM | 100 to 500 nM |  |  | 
20 | CNc1cc(C)nc(Nc2cc3c(c([C@H]4C[C@H]5CNC[C@H]5C4)c2)OCO3)n1 [Compound 342] | 500 to 2000 nM |  | 100 to 500 nM | 500 to 2000 nM |  |  | 
21 | CNc1cc(C)nc(Nc2cc3c(c(C4CCCNCC4)c2)OCO3)n1 (centres unmarked) [Compound 343] | 100 to 500 nM |  | 100 to 500 nM | 500 to 2000 nM |  |  | 
22 | CNc1cc(C)nc(Nc2cc3c(c(C4=C[C@H]5CNC[C@H]5C4)c2)OCCC3)n1 [Compound 344] | 100 to 500 nM |  | 100 to 500 nM | 500 to 2000 nM |  |  | 
23 | CNc1cc(C)nc(Nc2cc3c(c(C4=CCNCC4)c2)OCCC3)n1 [Compound 345] | 100 to 500 nM |  | 100 to 500 nM | 500 to 2000 nM |  |  | 
24 | CNc1cc(C)nc(Nc2cc3c(c(C4=CCC(N)CC4)c2)OCCC3)n1 (centres unmarked) [Compound 346] | 100 to 500 nM |  | 100 to 500 nM | > 2000 nM |  |  | 
25 | CNc1cc(C)nc(Nc2cc3c(c(C4=C[C@H]5CNC[C@H]5C4)c2)OCO3)n1 [Compound 347] | 100 to 500 nM |  | 100 to 500 nM | 500 to 2000 nM |  |  | 
26 | CNc1cc(C)nc(Nc2cc3c(c(N4C[C@H]5CNC[C@H]5C4)c2F)OCC3)n1 [Compound 351, N2-[6-fluoro-7-[rac-(3aS,6aR)-2,3,3a,4,6,6a-hexahydro-1H-pyrrolo[3,4-c]pyrrol-5-yl]-2,3-dihydrobenzofuran-5-yl]-N4,6-dimethyl-pyrimidine-2,4-diamine] | 100 to 500 nM |  | < 100 nM | 100 to 500 nM |  |  | 
27 | CNc1cc(C)nc(Nc2cc3c(c(C4=CCNCCC4)c2C)OCCC3)n1 [Compound 353, N4,6-dimethyl-N2-[7-methyl-8-(2,3,4,7-tetrahydro-1H-azepin-5-yl)chroman-6-yl]pyrimidine-2,4-diamine] | < 100 nM |  | < 100 nM | < 100 nM |  |  | 
28 | CNc1cc(C)nc(Nc2cc3c(c(C4=CCNCCC4)c2C)OCO3)n1 [Compound 363] | < 100 nM |  | < 100 nM | 100 to 500 nM |  |  | 
29 | CNc1cc(C)nc(Nc2cc3c(c(C4C[C@H]5CNC[C@H]5C4)c2F)OCC3)n1 (some centres unmarked) [Compound 437, N2-[7-(1,2,3,3a,4,5,6,6a-octahydrocyclopenta[c]pyrrol-5-yl)-6-fluoro-2,3-dihydrobenzofuran-5-yl]-N4,6-dimethyl-pyrimidine-2,4-diamine] | 100 to 500 nM |  | 500 to 2000 nM | 500 to 2000 nM |  |  | 
30 | CNc1cc(C)nc(Nc2ccc(OC)c(C3=CCN(C)CCC3)c2)n1 [Reference Compound A, reference compound] |  | 5000 to 10000 nM | < 100 nM |  | 5000 to 10000 nM | < 100 nM | 
31 | CNc1cc(C)nc(Nc2ccc(OC)c(C3=CCNCCC3)c2)n1 [Reference Compound B, reference compound] |  | 5000 to 10000 nM |  | < 100 nM | 5000 to 10000 nM |  | < 100 nM
